“Also recorded” adds a separate entry of the source.
System: dcLVs
Conditions: mouse, in vivo

## [Cl-].[K+] [potassium chloride]
  contraction of dcLVs: strongly but transiently contracted

## CNC[C@H](O)c1cccc(O)c1 [phenylephrine]
  amount of CSF tracer (in dcLV): decreased
  contraction or dilation of dcLVs: contracts; also recorded: dosage dependent contraction
